We go through 6 molecules from publication PMC11351550, “Synthesis, Cytotoxicity and Antioxidant Activity Evaluation of Some Thiazolyl–Catechol Compounds” (Antioxidants, 2024).

A short description of data set [1]: Total Antioxidant Capacity (TAC) assay. The class given is biochemical. Particulars: 95 °C, 1.5 h, 695 nm. As to the method: (§1) The stock solutions of the reference antioxidants (ascorbic acid, Trolox, EDTA-Na2) and compounds 3a–j were prepared by dissolving the solid powders in DMSO, obtaining 2 mM stock solutions. Following this, an additional set of solutions (0.2 mM) for each compound was obtained by dilution with DMSO. Absorption spectra of the tested compounds covering the range from 400 nm to 800 nm were recorded, indicating no absorption peaks near the wavelengths employed in the experiments. All measurements in the presented assays were made against blank samples. To quantify the activity of the compounds 3a–j, for the antiradical assays (DPPH and ABTS) and ferrous ion chelation, IC50 was calculated using Equation (1), while for the electron transfer assays (TAC, RP, FRAP and CUPRAC), the reference number of mole equivalent activity for each compound was calculated using Equation (2). (1) radical scavenging (%)=control absorbance−sample absorbance/control absorbance×100 (2) equivalents of control=sample absorbance/control absorbance
The Total Antioxidant Capacity (TAC) assay was conducted following the methodology outlined in our previous publication, which was based on initial reports from the literature. A volume of 10 mL of the reagent (0.6 M H2SO4, 28 mM Na3PO4 and 4 mM (NH4)6Mo7O24) and 1000 µL of the compound and standard solutions dispensed from the 2 mM stock solutions were mixed in sealed glass test tubes and incubated in a water bath at 95 °C for 1.5 h. After cooling the test tubes to room temperature, 1000 µL of each solution was diluted with 1000 µL of water. The absorbance of the solutions was then measured at λ = 695 nm.

The nature of data set [2]: CUPRAC (CUPric-Reducing Antioxidant Capacity) assay. Particulars: 30 min, 450 nm. The class given is biochemical. As to the method:
as §1
The electron-donating capacity of compounds was assessed using the CUPRAC (CUPric-Reducing Antioxidant Capacity) method. The protocol for this assay is a modification of the reports of Alam et al., Özyürek et al., and Apak et al.. Volumes of 250 µL of CuCl2 10 mM, 1 mL of ammonium acetate buffer 1 M, and 250 µL of 7.5 mM neocuproine in ethanol were mixed with 125 µL of samples and reference compound solutions (0.2 mM). The mixtures were shaken for 30 min in the dark; after that, their absorbance was determined spectrophotometrically at λ = 450 nm.

A short description of data set [3]: Ferrous ion chelation assay (ferrozine). Details: key: - represents negligible activity. The class given is biochemical. The method, then: as §1
To evaluate the ability of compounds to chelate ferrous ions, an assay was performed using an adaptation of Dinis et al.’s initial report. The solutions of the tested compounds (2 mM) were mixed well with 500 µL of FeSO4 (0.125 mM), and 500 µL of ferrozine 0.315 mM. After 10 min, the absorbance of the samples was determined spectrophotometrically at λ = 562 nm. EDTA-Na2 was used as a positive control, due to its exceptional ion chelation properties.

Data set [4] has as its system human pulmonary malignant cells (A549). Kind of data set: Alamar Blue cytotoxicity assay, A549 cells. Format: cell-based. Conditions: for IC50: 48 h exposure, Alamar Blue, read-out: IC50 (±SD) A549; for Selectivity Index: ratio between the calculated IC50 on BJ and A549 cells, 48 h. As to the method:
(§2) BJ cells were maintained in Dulbecco’s modified Eagle’s medium (DMEM) with low glucose (1 g/L), while the A549 cells were seeded in DMEM with high glucose (5 g/L). All media were supplemented with 10% fetal bovine serum (FBS) and 1% Penicillin/Streptomycin. […] Cellular media were refreshed every other day. Cells were either subcultured or used in experiments once they reached a confluency of 80–90%.
(§3) The cytotoxicity of the synthesized compounds was evaluated by Alamar Blue (AB) assays performed on both cell lines, A549 and BJ, after a 48 h exposure, as previously reported.
(§4) Briefly, approximately 7000 A549 cells and 4000 normal BJ cells were seeded in 100 µL cellular media in 96-well plates to achieve a confluency of 70–80% at the end of the experiment and left to attach overnight before exposure. […] Post-exposure, the media were removed, and the AB assay was performed, with cells being incubated with a 200 µM solution of resazurin for 4 h. The obtained fluorescence was measured at λexcitation = 530/25; λemission = 590/35.
(§5) The experiments included three biological replicates, each one including three technical replicates. The negative control (NC) consisted of cells exposed to a cell culture medium containing 0.2% DMSO and was used for data normalization (100%).

For data set [5], the system named is normal human foreskin fibroblasts (BJ). Nature of the data set: Alamar Blue cytotoxicity assay, BJ cells. The class given is cell-based. Conditions: for IC50: 48 h exposure, Alamar Blue. The method, then: as §2, §3, §4, §5
(The colour change of resazurin is a common sign of viable cells or microbes.)

Data set [6] is described as follows: Reducing power (RP) assay. Particulars: 50 °C, 20 min, pH 6.6. The class given is biochemical. As to the method: as §1
In the reducing power (RP) assay, the tested compounds performed the reduction of ferric ions from potassium ferricyanide, forming ferrocyanide, which gives a blue complex. The protocol followed is an adaptation of previously reported methodologies. In glass test tubes, 1000 µL of solutions containing compounds and standards measured from the 0.2 mM stock solutions were mixed with 400 µL of phosphate buffer (0.2 M, pH = 6.6) and 400 µL of K3[Fe(CN)6] solution (1% w/v). The tubes were sealed and incubated for 20 min in a water bath at 50 °C. After cooling to room temperature, 500 µL of trichloroacetic acid (10% w/w) was added to all test tubes The resulting mixtures were left for 0.5 h at room temperature. Subsequently, 250 µL of the resulting solutions were mixed with 140 µL of FeCl3 solution (0.1% w/v) and 1000 µL of distilled water, and the absorbance of the resulting solutions was determined at λ = 695 nm.

Data set [7] is described as follows: Ferric-Reducing Antioxidant Potential (FRAP) assay. Particulars: pH 3.6, 593 nm. The class given is biochemical. The method, then: as §1
The Ferric-Reducing Antioxidant Potential (FRAP) assay relies on the transfer of an electron from the antioxidant being assessed to Fe^3+, resulting in its conversion to Fe^2+. The resulting Fe^2+ ions are then chelated by 2,4,6-tripyridyl-s-triazine, giving a blue-colored complex, with an absorption maximum at λ = 593 nm. A 500 µL amount of the solutions (0.2 mM) of compounds and reference compounds was mixed with 600 µL FRAP reagent and 1200 µL acetate buffer (0.3 M, pH = 3.6), according to previous reports. The resulting solutions were mixed well in the dark, and their absorbance was measured spectrophotometrically.

Data set [8] is described as follows: DPPH radical-scavenging assay. The class given is biochemical. Conditions: 30 min in the dark, 517 nm; read-out: IC50 against DPPH•. As to the method: as §1
The DPPH˙ (2,2-diphenyl-1-picrylhydrazyl) radical-scavenging assay, initially reported by Brand-Williams et al., relies on transferring a hydrogen atom from the antioxidant substrate being analyzed to the stable violet radical of DPPH˙. This action converts DPPH˙ into a nonradical stable yellow compound. The reduction in absorbance of the DPPH˙ at λ = 517 nm corresponds to the quantity of neutralized reagent. To perform the DPPH assay, we took 50, 75, 100, 125, and 150 µL of each sample from their 0.2 mM stock solutions, then we adjusted the volumes with DMSO to ensure all samples reached a uniform final volume. These solutions were mixed with 1 mL of DPPH reagent and incubated in the dark for 30 min, as presented in literature reports.
Background: Loss of DPPH colour is used to gauge radical scavenging.

Data set [9] is described as follows: ABTS radical cation decolorization assay. The class given is biochemical. Particulars: 10 min, pH 7.4, 734 nm; read-out: IC50 against ABTS•+. The method, then:
as §1
The decolorization assay of the green ABTS^•+ (2,2′-azinobis-(3-ethylbenzothiazoline-6-sulfonic acid) to ABTS, based on the report of Re et al., was conducted following our group’s published report. The chemical stability of the ABTS^•+ reagent prior to use was checked at λ = 734 nm over one hour, ensuring a consistent absorption (approximately equal to 0.7). The reagent was prepared in potassium phosphate buffer (0.1 M, pH = 7.4) and activated overnight using MnO2 [17]. In all cuvettes, we added 100 μL of the tested compound solutions (0.2 mM) in increasing concentrations up to 200 µL and 2000 µL of the ABTS^•+ reagent. The resulting mixtures were thoroughly shaken for 10 min at room temperature, in the absence of light. The optical absorbance of the resulting mixtures was then measured by spectrophotometry at λ = 734 nm.

Where a name gives a salt, the structure may show the parent alone. Read-outs that look alike come from different tables or passages of the source.

Regarding `Oc1ccc(-c2csc(-c3ccccn3)n2)cc1O` (as salt: hydrochloride) [Compound 3h, 4-(2-(pyridin-2-yl)thiazol-4-yl)benzene-1,2-diol], the melting point – broadly, the temperature, or range, at which the solid turns liquid – worked out at 230 °C.
Take `Oc1ccc(-c2csc(-c3ccc(Cl)cc3)n2)cc1O` [Compound 3c]: the “TAC Eq Ascorbic Acid” value in data set [1] amounted to 0.83 Eq Ascorbic Acid. Besides, the “CUPRAC Eq Trolox” value in data set [2] worked out at 2.38 Eq Trolox. Besides, the “ferrous ion chelation percent” value in data set [3] (0.25 µM), in [3] (0.5 µM), in [3] (1 µM), in data set [3] (1.5 µM) and in [3] (2 µM) was “-” each time. The IC50 (as a rule, the concentration at which inhibition is half-maximal) in data set [4] turned out to be 8.16 µM; in data set [5], 35.8 µM; in [8], 47.8 µM; in data set [9], 15.7 µM. Also, in [4], the “Selectivity Index” value is 4.39. Further, the “RP Eq Ascorbic Acid” value in [6] is given as 1.47 Eq Ascorbic Acid. Further, the “RP Eq Trolox” value in data set [6] came to 1.22 Eq Trolox. Moreover, the “FRAP Eq Trolox” value in data set [7] worked out at 1.10 Eq Trolox.
Turning to `Oc1ccc(-c2csc(-c3ccc(Br)cc3)n2)cc1O` [Compound 3d, 4-(2-(4-bromophenyl)thiazol-4-yl)benzene-1,2-diol], the “TAC Eq Ascorbic Acid” value in data set [1] amounted to 0.71 Eq Ascorbic Acid. Moreover, the “CUPRAC Eq Trolox” value in data set [2] is reported as 2.62 Eq Trolox. Besides, the “ferrous ion chelation percent” value in data set [3] (0.25 µM), in [3] (0.5 µM), in [3] (1 µM), in data set [3] (1.5 µM) and in data set [3] (2 µM) was “-” each time. Also, the concentration for half-maximal inhibition (IC50) in [4] (Homo sapiens, A549) is 6.08 µM; in data set [5] (Homo sapiens, Fibroblast), 34.4 µM; in data set [8] it was 48.3 µM; in data set [9], 12.6 µM. Besides, the “Selectivity Index” value in data set [4] is 5.66. In addition, the “RP Eq Ascorbic Acid” value in data set [6] is 1.63 Eq Ascorbic Acid. In data set [6], the “RP Eq Trolox” value came out at 1.35 Eq Trolox. Moreover, in [7], the “FRAP Eq Trolox” value is 1.09 Eq Trolox.
Regarding `Oc1ccc(-c2csc(-c3csc(-c4ccccc4)n3)n2)cc1O` [Compound 3i, 4-(2′-phenyl-[2,4′-bithiazol]-4-yl)benzene-1,2-diol], the “TAC Eq Ascorbic Acid” value in data set [1] is 0.51 Eq Ascorbic Acid. In [2], the “CUPRAC Eq Trolox” value is recorded as 1.84 Eq Trolox. Further, the “ferrous ion chelation percent” value in data set [3] (0.25 µM), in [3] (0.5 µM), in data set [3] (1 µM), in data set [3] (1.5 µM) and in data set [3] (2 µM) was “-” in each case. Moreover, the IC50 turned out to be 5.18 µM in data set [4] (Homo sapiens, A549); 29.4 µM in [5] (Homo sapiens, Fibroblast); 45.9 µM in data set [8]; 14.1 µM in [9]. Besides, in data set [4], the “Selectivity Index” value is listed as 5.67. In addition, the “RP Eq Ascorbic Acid” value in data set [6] worked out at 1.63 Eq Ascorbic Acid. The “RP Eq Trolox” value in data set [6] came out at 1.35 Eq Trolox. In addition, the “FRAP Eq Trolox” value in data set [7] was 1.14 Eq Trolox.
As for `Oc1ccc(-c2csc(-c3ccncc3)n2)cc1O` [Compound 3g, 4-(2-(pyridin-4-yl)thiazol-4-yl)benzene-1,2-diol], in data set [1], the “TAC Eq Ascorbic Acid” value was found to be 0.64 Eq Ascorbic Acid. Further, the “CUPRAC Eq Trolox” value in data set [2] is listed as 3.60 Eq Trolox. For the same molecule, the “ferrous ion chelation percent” value in data set [3] (0.25 µM), in data set [3] (0.5 µM), in data set [3] (1 µM), in data set [3] (1.5 µM) and in data set [3] (2 µM) was “-” each time. Also, the IC50 is 7.34 µM in data set [4] (Homo sapiens, A549); more than 100 µM in data set [5] (Homo sapiens, Fibroblast); 36.7 µM in data set [8]; 7.59 µM in [9]. Moreover, the “Selectivity Index” value in [4] was more than 13.62. For the same molecule, in data set [5] (highest tested dose, 48 h), the “decrease of viability of BJ cells” value was “approximately 20%”. In addition, the “RP Eq Ascorbic Acid” value in data set [6] amounted to 2.04 Eq Ascorbic Acid. For the same molecule, the “RP Eq Trolox” value in data set [6] stood at 1.69 Eq Trolox. In [7], the “FRAP Eq Trolox” value was 1.63 Eq Trolox.
`COc1cc(-c2nc(-c3ccc(O)c(O)c3)cs2)cc(OC)c1OC` [Compound 3f, 4-(2-(3,4,5-trimethoxyphenyl)thiazol-4-yl)benzene-1,2-diol]: the “TAC Eq Ascorbic Acid” value in data set [1] was found to be 1.22 Eq Ascorbic Acid. In addition, in data set [2], the “CUPRAC Eq Trolox” value came to 3.05 Eq Trolox. For the same molecule, the “ferrous ion chelation percent” value in data set [3] (0.25 µM), in data set [3] (0.5 µM), in [3] (1 µM), in data set [3] (1.5 µM) and in [3] (2 µM) was “-” throughout. For the same molecule, the IC50 in data set [4] (Homo sapiens, A549) is 8.76 µM; in [5] (Homo sapiens, Fibroblast), 82.6 µM; in data set [8], 54.6 µM; in [9], 13.4 µM. In addition, the “Selectivity Index” value in data set [4] is on record as 9.43. Further, in data set [6], the “RP Eq Ascorbic Acid” value is 1.75 Eq Ascorbic Acid. The “RP Eq Trolox” value in data set [6] is on record as 1.46 Eq Trolox. Also, in [7], the “FRAP Eq Trolox” value worked out at 1.06 Eq Trolox.
